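Interpolation was linear, between the two tested concentrations surrounding the appropriate level; five concentrations were tested over 48 hours in 96-well plates. Here, GI50 denotes the concentration required for 50% inhibition of growth. TGI denotes the concentration required for complete inhibition of growth.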
Assays:
Test in all cases: NCI-60 cell line screen, 48 h
MOLT-4 leukemia = tested on: MOLT-4 leukemia
NCI-H460 lung = tested on: NCI-H460 lung
DU-145 prostate = tested on: DU-145 prostate
SK-MEL-28 melanoma = tested on: SK-MEL-28 melanoma
ACHN renal = tested on: ACHN renal
SK-MEL-2 melanoma = tested on: SK-MEL-2 melanoma
BT-549 breast = tested on: BT-549 breast
SNB-19 CNS = tested on: SNB-19 CNS
NCI-H522 lung = tested on: NCI-H522 lung
SR leukemia = tested on: SR leukemia
SK-OV-3 ovarian = tested on: SK-OV-3 ovarian
RXF 393 renal = tested on: RXF 393 renal
SF-295 CNS = tested on: SF-295 CNS
SN12C renal = tested on: SN12C renal
HOP-92 NSCLC = tested on: HOP-92 NSCLC
RPMI-8226 leukemia = tested on: RPMI-8226 leukemia
M14 melanoma = tested on: M14 melanoma
NCI/ADR-RES ovarian = tested on: NCI/ADR-RES ovarian
EKVX NSCLC = tested on: EKVX NSCLC
OVCAR-8 ovarian = tested on: OVCAR-8 ovarian
A498 renal = tested on: A498 renal
CCRF-CEM leukemia = tested on: CCRF-CEM leukemia
OVCAR-4 ovarian = tested on: OVCAR-4 ovarian
HCT-116 colon = tested on: HCT-116 colon
OVCAR-5 ovarian = tested on: OVCAR-5 ovarian
U251 CNS = tested on: U251 CNS
MCF7 breast = tested on: MCF7 breast
IGROV1 ovarian = tested on: IGROV1 ovarian
NCI-H23 lung = tested on: NCI-H23 lung
K-562 leukemia = tested on: K-562 leukemia
MDA-MB-435 = tested on: MDA-MB-435
PC-3 prostate = tested on: PC-3 prostate
MDA-MB-468 breast = tested on: MDA-MB-468 breast
HT29 colon = tested on: HT29 colon
HS 578T breast = tested on: HS 578T breast
SF-268 CNS = tested on: SF-268 CNS
CAKI-1 renal = tested on: CAKI-1 renal
MALME-3M melanoma = tested on: MALME-3M melanoma
786-0 renal = tested on: 786-0 renal
UACC-62 melanoma = tested on: UACC-62 melanoma
SK-MEL-5 melanoma = tested on: SK-MEL-5 melanoma
A549 NSCLC = tested on: A549 NSCLC
SNB-75 CNS = tested on: SNB-75 CNS
SF-539 CNS = tested on: SF-539 CNS
MDA-MB-231 breast = tested on: MDA-MB-231 breast
COLO 205 colon = tested on: COLO 205 colon
KM12 colon = tested on: KM12 colon
LOX IMVI melanoma = tested on: LOX IMVI melanoma
HL-60(TB) leukemia = tested on: HL-60(TB) leukemia
TK-10 renal = tested on: TK-10 renal
OVCAR-3 ovarian = tested on: OVCAR-3 ovarian
HCC-2998 colon = tested on: HCC-2998 colon
UO-31 renal = tested on: UO-31 renal
NCI-H226 lung = tested on: NCI-H226 lung
T-47D breast = tested on: T-47D breast
HCT-15 colon = tested on: HCT-15 colon
SW-620 colon = tested on: SW-620 colon
HOP-62 NSCLC = tested on: HOP-62 NSCLC

SMILES: COc1ccc2cc([C@H](C)C(=O)NCc3ccccc3)ccc2c1
- GI50 (MOLT-4 leukemia): 4.19 µM
- TGI (MOLT-4 leukemia): > 100 µM
- GI50 (NCI-H460 lung): 3.83 µM
- TGI (NCI-H460 lung): > 100 µM
- GI50 (DU-145 prostate): 5.52 µM
- TGI (DU-145 prostate): > 100 µM
- GI50 (SK-MEL-28 melanoma): 7.12 µM
- TGI (SK-MEL-28 melanoma): > 100 µM
- GI50 (ACHN renal): 5.93 µM
- TGI (ACHN renal): > 100 µM
- GI50 (SK-MEL-2 melanoma): 3.93 µM
- TGI (SK-MEL-2 melanoma): 34.7 µM
- GI50 (BT-549 breast): 5.47 µM
- TGI (BT-549 breast): > 100 µM
- GI50 (SNB-19 CNS): 5.46 µM
- TGI (SNB-19 CNS): 40.2 µM
- GI50 (NCI-H522 lung): 2.98 µM
- TGI (NCI-H522 lung): > 100 µM
- GI50 (SR leukemia): 1.78 µM
- TGI (SR leukemia): > 100 µM
- GI50 (SK-OV-3 ovarian): 3.76 µM
- TGI (SK-OV-3 ovarian): 76.7 µM
- GI50 (RXF 393 renal): 2.57 µM
- TGI (RXF 393 renal): 9.23 µM
- GI50 (SF-295 CNS): 3.23 µM
- TGI (SF-295 CNS): 16 µM
- GI50 (SN12C renal): 4.26 µM
- TGI (SN12C renal): > 100 µM
- GI50 (HOP-92 NSCLC): 7.87 µM
- TGI (HOP-92 NSCLC): 79.2 µM
- GI50 (RPMI-8226 leukemia): 5.09 µM
- TGI (RPMI-8226 leukemia): > 100 µM
- GI50 (M14 melanoma): 3.61 µM
- TGI (M14 melanoma): > 100 µM
- GI50 (NCI/ADR-RES ovarian): 3.11 µM
- TGI (NCI/ADR-RES ovarian): 12.2 µM
- GI50 (EKVX NSCLC): 3.82 µM
- TGI (EKVX NSCLC): > 100 µM
- GI50 (OVCAR-8 ovarian): 5.29 µM
- TGI (OVCAR-8 ovarian): > 100 µM
- GI50 (A498 renal): > 100 µM
- TGI (A498 renal): > 100 µM
- GI50 (CCRF-CEM leukemia): 3.9 µM
- TGI (CCRF-CEM leukemia): > 100 µM
- GI50 (OVCAR-4 ovarian): 49.3 µM
- TGI (OVCAR-4 ovarian): > 100 µM
- GI50 (HCT-116 colon): 5.21 µM
- TGI (HCT-116 colon): > 100 µM
- GI50 (OVCAR-5 ovarian): 7.84 µM
- TGI (OVCAR-5 ovarian): > 100 µM
- GI50 (U251 CNS): 3.95 µM
- TGI (U251 CNS): 73.9 µM
- GI50 (MCF7 breast): 3.39 µM
- TGI (MCF7 breast): > 100 µM
- GI50 (IGROV1 ovarian): 5.5 µM
- TGI (IGROV1 ovarian): > 100 µM
- GI50 (NCI-H23 lung): 5.48 µM
- TGI (NCI-H23 lung): > 100 µM
- GI50 (K-562 leukemia): 2.19 µM
- TGI (K-562 leukemia): > 100 µM
- GI50 (MDA-MB-435): 1.71 µM
- TGI (MDA-MB-435): 7.53 µM
- GI50 (PC-3 prostate): 4.44 µM
- TGI (PC-3 prostate): > 100 µM
- GI50 (MDA-MB-468 breast): 1.98 µM
- TGI (MDA-MB-468 breast): 5.52 µM
- GI50 (HT29 colon): 3.08 µM
- TGI (HT29 colon): > 100 µM
- GI50 (HS 578T breast): 3.11 µM
- TGI (HS 578T breast): 51.7 µM
- GI50 (SF-268 CNS): 6.44 µM
- TGI (SF-268 CNS): > 100 µM
- GI50 (CAKI-1 renal): 4.78 µM
- TGI (CAKI-1 renal): > 100 µM
- GI50 (MALME-3M melanoma): 3.88 µM
- TGI (MALME-3M melanoma): > 100 µM
- GI50 (786-0 renal): 7.94 µM
- TGI (786-0 renal): > 100 µM
- GI50 (UACC-62 melanoma): 3.75 µM
- TGI (UACC-62 melanoma): > 100 µM
- GI50 (SK-MEL-5 melanoma): 3.17 µM
- TGI (SK-MEL-5 melanoma): > 100 µM
- GI50 (A549 NSCLC): 6.86 µM
- TGI (A549 NSCLC): > 100 µM
- GI50 (SNB-75 CNS): 1.68 µM
- TGI (SNB-75 CNS): 7.16 µM
- GI50 (SF-539 CNS): 3.08 µM
- TGI (SF-539 CNS): 11.7 µM
- GI50 (MDA-MB-231 breast): 4.72 µM
- TGI (MDA-MB-231 breast): > 100 µM
- GI50 (COLO 205 colon): 3.03 µM
- TGI (COLO 205 colon): 14 µM
- GI50 (KM12 colon): 4.56 µM
- TGI (KM12 colon): > 100 µM
- GI50 (LOX IMVI melanoma): 5.03 µM
- TGI (LOX IMVI melanoma): > 100 µM
- GI50 (HL-60(TB) leukemia): 2.25 µM
- TGI (HL-60(TB) leukemia): 7.52 µM
- GI50 (TK-10 renal): 13 µM
- TGI (TK-10 renal): > 100 µM
- GI50 (OVCAR-3 ovarian): 3.21 µM
- TGI (OVCAR-3 ovarian): 22.9 µM
- GI50 (HCC-2998 colon): 6.89 µM
- TGI (HCC-2998 colon): > 100 µM
- GI50 (UO-31 renal): 4.35 µM
- TGI (UO-31 renal): 73.4 µM
- GI50 (NCI-H226 lung): 7.83 µM
- TGI (NCI-H226 lung): > 100 µM
- GI50 (T-47D breast): 4.75 µM
- TGI (T-47D breast): > 100 µM
- GI50 (HCT-15 colon): 3.28 µM
- TGI (HCT-15 colon): > 100 µM
- GI50 (SW-620 colon): 3.43 µM
- TGI (SW-620 colon): > 100 µM
- GI50 (HOP-62 NSCLC): 4.02 µM
- TGI (HOP-62 NSCLC): 76 µM
